Source: EPA's ToxRefDB 2

How the values were obtained:
rat [1] = settings: Prenatal developmental toxicity study, sprague dawley, Oral, Gavage/Intubation, dose end: 15 GD
rat [2] = settings: Prenatal developmental toxicity study, sprague dawley, Oral, Gavage/Intubation, dose end: 19 GD
rabbit [3] = settings: Prenatal developmental toxicity study, new zealand white, Oral, Gavage/Intubation, dose end: 28 GD
rabbit [4] = settings: Prenatal developmental toxicity study, new zealand white, Oral, Gavage/Intubation, dose end: 28 GD; remark: listed apart in the source
rat [5] = settings: Peri- and post-natal toxicity study (Segment III), sprague dawley, Oral, Gavage/Intubation, dose end: 40 PND
dog [6] = settings: Prenatal developmental toxicity study, beagle, Oral, Feed, dose end: 56 GD
rat [7] = settings: Combined chronic toxicity/carcinogenicity, wistar, Oral, Feed, dose end: 104 week
dog [8] = settings: Chronic toxicity, beagle, Oral, Feed, dose end: 104 week
rabbit [9] = settings: Prenatal developmental toxicity study, new zealand white, Oral, Gavage/Intubation, dose end: 18 GD
rat [10] = settings: Subchronic oral toxicity in rodents, fischer, Feed, dose end: 13 week
mouse [11] = settings: Combined chronic toxicity/carcinogenicity, b6c3f1, Oral, Feed, dose end: 105 week
mouse [12] = settings: Subchronic oral toxicity in rodents, b6c3f1, Feed, dose end: 13 week
rat [13] = settings: Combined chronic toxicity/carcinogenicity, fischer, Oral, Feed, dose end: 104 week
mouse [14] = settings: Subchronic oral toxicity in rodents, b6c3f1, Gavage/Intubation, dose end: 13 week
rat [15] = settings: Subchronic oral toxicity in rodents, fischer, Gavage/Intubation, dose end: 13 week
[16] = group: developmental, developmental / developmental malformation / bone / absent + developmental / developmental malformation / bone / bipartite ossification + …
[17] = group: maternal, systemic / pathology gross / liver / enlarged + systemic / in life observation / clinical signs / salivation
[18] = group: developmental, developmental / developmental malformation / bone / fused cartilage + systemic / in life observation / body weight / fetal weight
[19] = group: maternal, systemic / in life observation / body weight / body weight gain + systemic / in life observation / food consumption / food consumption
[20] = group: maternal, systemic / in life observation / body weight / body weight gain + systemic / in life observation / food consumption / food consumption + …
[21] = group: developmental, developmental / developmental malformation / bone / delayed ossification + developmental / developmental malformation / bone / hemicentric…
[22] = group: developmental, developmental / developmental malformation / trunk / omphalocele + systemic / in life observation / body weight / fetal weight
[23] = group: maternal, reproductive / reproductive performance / resorptions / resorptions + systemic / in life observation / body weight / body weight + systemic…
[24] = group: developmental, developmental / developmental landmark / vaginal opening / vaginal opening
[25] = group: maternal, reproductive / reproductive performance / estrous cycle / abnormal + reproductive / reproductive performance / estrous cycle / corpora lutea
[26] = group: parental, systemic / clinical chemistry / estradiol / estradiol + systemic / organ weight / kidney / absolute + systemic / organ weight / ovary / …
[27] = group: developmental, developmental / offspring survival late / [other] / [other] + systemic / in life observation / body weight / offspring (pup) weight
[28] = group: maternal, reproductive / offspring survival early / dead fetuses / dead fetuses
[29] = group: cholinesterase, cholinesterase / cholinesterase / cholinesterase / plasma cholinesterase (che)
[30] = group: systemic, systemic / hematology / erythrocyte (rbc) count differential / erythrocyte (rbc) + systemic / hematology / reticulocyte / reticulocyte + …
[31] = group: systemic, systemic / in life observation / food consumption / food consumption + systemic / in life observation / clinical signs / hindlimb strength…
[32] = group: cholinesterase, cholinesterase / cholinesterase / cholinesterase / cholinesterase (che)
[33] = group: developmental, developmental / developmental malformation / liver / discolored
[34] = group: maternal, systemic / in life observation / body weight / body weight + systemic / in life observation / body weight / body weight gain
[35] = group: systemic, systemic / in life observation / body weight / body weight + systemic / in life observation / body weight / body weight gain + systemic / in…
[36] = group: systemic, systemic / pathology microscopic / adrenal gland / vacuolization cytoplasmic
[37] = group: systemic, systemic / pathology microscopic / adrenal gland / pigmentation
[38] = group: systemic, systemic / hematology / hemoglobin (hgb) / hemoglobin (hgb) + systemic / hematology / mean corpuscular hemoglobin concentration (mchc) / …
[39] = group: systemic, systemic / pathology microscopic / ovary / hyperplasia + systemic / in life observation / clinical signs / grip strength + systemic / organ …
[40] = group: systemic, systemic / pathology microscopic / adrenal gland / vacuolization cytoplasmic + systemic / pathology microscopic / ovary / hypertrophy
[41] = group: systemic, systemic / hematology / hemoglobin (hgb) / hemoglobin (hgb) + systemic / in life observation / clinical signs / grip strength + systemic / …

## C[N+]12CN3CN(CN(C3)C1)C2.[Cl-]
Rat [1]; [16]
  LEL: 1500 mg/kg/day
  LOAEL: 1500 mg/kg/day
  NEL: < 1500 mg/kg/day
  NOAEL: < 1500 mg/kg/day
Rat [1]; group: maternal, systemic / in life observation / body weight / body weight + systemic / pathology gross / liver / enlarged
  LOAEL: 3000 mg/kg/day
Rat [1]; group: maternal, systemic / in life observation / body weight / body weight + systemic / pathology gross / liver / enlarged + reproductive / reproductive …
  NOAEL: 1500 mg/kg/day
Rat [1]; [17]
  LEL: 1500 mg/kg/day
  NEL: < 1500 mg/kg/day

## CC(C)c1ccc2cc(C(C)C)ccc2c1 [2,6-Diisopropylnaphthalene]
Rat [2]; [18]
  LEL: 500 mg/kg/day
  LOAEL: 500 mg/kg/day
  NEL: 150 mg/kg/day
  NOAEL: 150 mg/kg/day
Rat [2]; [19]
  LEL: 150 mg/kg/day
  LOAEL: 150 mg/kg/day
Rat [2]; [20]
  NEL: 50 mg/kg/day
  NOAEL: 50 mg/kg/day

## O.O.[Cu] [Copper(II) hydroxide]
Rabbit [3]; [21]
  LEL: 18 mg/kg/day
  LOAEL: 18 mg/kg/day
  NEL: 9 mg/kg/day
  NOAEL: 9 mg/kg/day
Rabbit [3]; [19]
  LEL: 9 mg/kg/day
  LOAEL: 9 mg/kg/day
Rabbit [3]; [20]
  NEL: 6 mg/kg/day
  NOAEL: 6 mg/kg/day
Rabbit [4]; [22]
  LEL: 30 mg/kg/day
  LOAEL: > 30 mg/kg/day
  NEL: 15 mg/kg/day
  NOAEL: ≥ 30 mg/kg/day
Rabbit [4]; [23]
  LOAEL: > 30 mg/kg/day
  NEL: 7.5 mg/kg/day
  NOAEL: ≥ 30 mg/kg/day
Rabbit [4]; group: maternal, systemic / in life observation / body weight / body weight + systemic / in life observation / body weight / body weight gain + systemic / in…
  LEL: 15 mg/kg/day

## CC(C)OC(=O)c1ccc(O)cc1 [Isopropylparaben]
Rat [5]; [24]
  LEL: 250 mg/kg/day
  LOAEL: > 1000 mg/kg/day
  NEL: 62.5 mg/kg/day
  NOAEL: ≥ 1000 mg/kg/day
Rat [5]; [25]
  LEL: 1000 mg/kg/day
  LOAEL: > 1000 mg/kg/day
  NEL: 250 mg/kg/day
  NOAEL: ≥ 1000 mg/kg/day
Rat [5]; [26]
  LEL: 1000 mg/kg/day
  LOAEL: > 1000 mg/kg/day
  NEL: 250 mg/kg/day
  NOAEL: ≥ 1000 mg/kg/day

## C1N2CN3CN1CN(C2)C3 [Methenamine]
Dog [6]; [27]
  LEL: 31 mg/kg/day
  LOAEL: > 31 mg/kg/day
  NEL: 15 mg/kg/day
  NOAEL: ≥ 31 mg/kg/day
Dog [6]; [28]
  LEL: 31 mg/kg/day
  LOAEL: > 31 mg/kg/day
  NEL: 15 mg/kg/day
  NOAEL: ≥ 31 mg/kg/day

## CNC(=O)Oc1cc(C)c(SC)c(C)c1 [Methiocarb]
Rat [7]; [29]
  LEL: 30 mg/kg/day
  LOAEL: > 30 mg/kg/day
  NEL: 10 mg/kg/day
  NOAEL: ≥ 30 mg/kg/day
Rat [7]; group: systemic, systemic / hematology / erythrocyte (rbc) count differential / erythrocyte (rbc)
  LOAEL: 10 mg/kg/day
Rat [7]; group: systemic, systemic / hematology / erythrocyte (rbc) count differential / erythrocyte (rbc) + systemic / hematology / reticulocyte / reticulocyte
  LEL: 10 mg/kg/day
Rat [7]; [30]
  NEL: 3.4 mg/kg/day
  NOAEL: 3.4 mg/kg/day
Dog [8]; [29]
  LEL: 0.75 mg/kg/day
  LOAEL: 0.75 mg/kg/day
  NEL: < 0.75 mg/kg/day
  NOAEL: < 0.75 mg/kg/day
Dog [8]; group: systemic, systemic / in life observation / clinical signs / tremors
  LOAEL: 12 mg/kg/day
Dog [8]; group: systemic, systemic / in life observation / food consumption / food consumption
  LEL: 3 mg/kg/day
Dog [8]; [31]
  NEL: 0.75 mg/kg/day
  NOAEL: 3 mg/kg/day
Rabbit [9]; [32]
  LEL: 10 mg/kg/day
  LOAEL: 10 mg/kg/day
  NEL: 3 mg/kg/day
  NOAEL: 3 mg/kg/day
Rabbit [9]; [33]
  LEL: 10 mg/kg/day
  LOAEL: > 10 mg/kg/day
  NEL: 3 mg/kg/day
  NOAEL: ≥ 10 mg/kg/day
Rabbit [9]; [34]
  LEL: 10 mg/kg/day
  LOAEL: 10 mg/kg/day
  NEL: 3 mg/kg/day
  NOAEL: 3 mg/kg/day

## Cc1ccc(OP(=O)(Oc2ccc(C)cc2)Oc2ccc(C)cc2)cc1.Cc1cccc(OP(=O)(Oc2cccc(C)c2)Oc2cccc(C)c2)c1.Cc1ccccc1OP(=O)(Oc1ccccc1C)Oc1ccccc1C [Tricresyl phosphate]
Rat [10]; [32]
  LEL: 55 mg/kg/day
  LOAEL: > 750 mg/kg/day
  NEL: < 55 mg/kg/day
  NOAEL: ≥ 750 mg/kg/day
Rat [10]; [35]
  LOAEL: > 750 mg/kg/day
  NOAEL: ≥ 750 mg/kg/day
Rat [10]; [36]
  LEL: 55 mg/kg/day
  NEL: < 55 mg/kg/day
Mouse [11]; [32]
  LEL: 7 mg/kg/day
  LOAEL: 7 mg/kg/day
  NEL: < 7 mg/kg/day
  NOAEL: < 7 mg/kg/day
Mouse [11]; [37]
  LEL: 8 mg/kg/day
  LOAEL: 8 mg/kg/day
  NEL: < 8 mg/kg/day
  NOAEL: < 8 mg/kg/day
Mouse [12]; [32]
  LEL: 45 mg/kg/day
  LOAEL: > 900 mg/kg/day
  NEL: < 45 mg/kg/day
  NOAEL: ≥ 900 mg/kg/day
Mouse [12]; [38]
  LOAEL: > 900 mg/kg/day
  NOAEL: ≥ 900 mg/kg/day
Mouse [12]; [36]
  LEL: 65 mg/kg/day
  NEL: < 65 mg/kg/day
Rat [13]; [32]
  LEL: 4 mg/kg/day
  LOAEL: > 30 mg/kg/day
  NEL: < 4 mg/kg/day
  NOAEL: ≥ 30 mg/kg/day
Rat [13]; group: systemic, systemic / pathology microscopic / ovary / hyperplasia
  LEL: 7 mg/kg/day
Rat [13]; [39]
  LOAEL: > 30 mg/kg/day
  NEL: 4 mg/kg/day
  NOAEL: ≥ 30 mg/kg/day
Mouse [14]; [32]
  LEL: 50 mg/kg/day
  LOAEL: > 800 mg/kg/day
  NEL: < 50 mg/kg/day
  NOAEL: ≥ 800 mg/kg/day
Mouse [14]; [35]
  LOAEL: > 800 mg/kg/day
  NOAEL: ≥ 800 mg/kg/day
Mouse [14]; [40]
  LEL: 50 mg/kg/day
  NEL: < 50 mg/kg/day
Rat [15]; [32]
  LEL: 50 mg/kg/day
  LOAEL: > 800 mg/kg/day
  NEL: < 50 mg/kg/day
  NOAEL: ≥ 800 mg/kg/day
Rat [15]; [41]
  LOAEL: > 800 mg/kg/day
  NOAEL: ≥ 800 mg/kg/day
Rat [15]; [40]
  LEL: 50 mg/kg/day
  NEL: < 50 mg/kg/day
